How the values were obtained:
[1] = Test for measuring dissolution rate (rotating disk method); type: physicochemical; conditions: 2nd fluid pH 6.8, 500 mL, 37° C., 50 rpm, 1 cm^2
Experimental: The dissolution rates of the following crystal and amorphous compounds were measured under the conditions described below by the rotating disk method (see, J. H. Woods et al., J. Pharm. Soc., 54, 1068 (1955)): a crystalline form of the free carboxamide obtained in Preparation Example 1, an amorphous form of the methanesulfonate of the carboxamide obtained in Example 1 and an amorphous form of the ethanesulfonate obtained in Example 2. The dissolution rates were calculated based on a range in which linearity was maintained in the relation between concentration and time at the initial stage of dissolution.
(Rotating disk method conditions)
Solvent: “2nd fluid” (pH 6.8, 500 mL) as described in Japanese Pharmacopoeia 14th Edition, General Tests (disintegration test)
Disk rotation speed: 50 rpm
Area of powder contacting with solvent on disk: 1 cm^2
Sampling amount: approx. 1 mL
Column: YMC Pack ProC18 (YMC Co., Ltd.; inner diameter 4.6 mm, column length 150 mm, particle size 5 μm)
Column temperature: 40° C.
Concentration of solution B: 20%
Detection: ultraviolet absorbance photometer (wavelength: 252 nm)
Temperature of auto sampler: 25° C.

angiogenesis = conditions: free-form product; WO02/32872 Example 368; cited from earlier work
c-Kit kinase = c-Kit kinase (Homo sapiens, UniProt P10721); conditions: AACR 2004 proceedings; WO2004/080462; cited from earlier work
Sequence of c-Kit kinase (P10721 26-976): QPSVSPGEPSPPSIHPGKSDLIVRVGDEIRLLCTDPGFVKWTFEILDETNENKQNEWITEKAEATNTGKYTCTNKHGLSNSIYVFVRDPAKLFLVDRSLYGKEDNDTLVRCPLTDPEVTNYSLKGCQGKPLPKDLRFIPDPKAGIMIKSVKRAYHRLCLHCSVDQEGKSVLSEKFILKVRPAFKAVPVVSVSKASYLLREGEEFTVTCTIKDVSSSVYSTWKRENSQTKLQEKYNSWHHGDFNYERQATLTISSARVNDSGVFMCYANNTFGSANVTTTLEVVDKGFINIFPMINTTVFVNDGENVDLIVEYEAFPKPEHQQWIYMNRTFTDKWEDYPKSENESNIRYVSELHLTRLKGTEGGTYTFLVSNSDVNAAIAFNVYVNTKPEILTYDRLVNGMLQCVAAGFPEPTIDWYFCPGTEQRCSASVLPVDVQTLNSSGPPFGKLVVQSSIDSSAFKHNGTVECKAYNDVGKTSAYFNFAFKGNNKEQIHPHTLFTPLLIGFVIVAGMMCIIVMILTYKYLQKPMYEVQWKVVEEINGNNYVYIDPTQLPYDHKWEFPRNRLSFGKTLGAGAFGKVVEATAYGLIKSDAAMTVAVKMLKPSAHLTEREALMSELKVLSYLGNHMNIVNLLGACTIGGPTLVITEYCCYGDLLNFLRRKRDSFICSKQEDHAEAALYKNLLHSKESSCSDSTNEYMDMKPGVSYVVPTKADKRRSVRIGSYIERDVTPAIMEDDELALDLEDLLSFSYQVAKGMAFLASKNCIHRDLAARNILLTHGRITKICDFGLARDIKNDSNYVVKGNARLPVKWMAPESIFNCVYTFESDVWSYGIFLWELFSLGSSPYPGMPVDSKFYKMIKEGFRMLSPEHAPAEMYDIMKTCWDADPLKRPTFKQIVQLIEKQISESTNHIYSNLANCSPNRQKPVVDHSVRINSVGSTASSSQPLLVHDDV

Row | dissolution rate [1] | SMILES | angiogenesis inhibition (angiogenesis) | inhibitory action for c-Kit kinase (c-Kit kinase)
1 | 25.1 μg/min/cm^2 | CCS(=O)(=O)O.COc1cc2nccc(Oc3ccc(NC(=O)NC4CC4)c(Cl)c3)c2cc1C(N)=O [esylate amorphous, An amorphous form of the ethanesulfonate of 4-(3-chloro-4-(cyclopropylaminocarbonyl)aminophenoxy)-7-methoxy-6-quinolinecarboxamide] | – | –
2 | 1.1 μg/min/cm^2 | COc1cc2nccc(Oc3ccc(NC(=O)NC4CC4)c(Cl)c3)c2cc1C(N)=O [free form, 4-(3-chloro-4-(cyclopropylaminocarbonyl)aminophenoxy)-7-methoxy-6-quinolinecarboxamide] | excellent angiogenesis inhibition | strong inhibitory action
3 | 22.7 μg/min/cm^2 | COc1cc2nccc(Oc3ccc(NC(=O)NC4CC4)c(Cl)c3)c2cc1C(N)=O.CS(=O)(=O)O [mesylate amorphous, An amorphous form of the methanesulfonate of 4-(3-chloro-4-(cyclopropylaminocarbonyl)aminophenoxy)-7-methoxy-6-quinolinecarboxamide] | – | –

From US7550483B2, “Amorphous salt of 4-(3-chloro-4-(cyclopropylaminocarbonyl)aminophenoxy)-7-methoxy-6-quinolinecarboxamide and process for preparing the same” (Eisai R&D Management Co., Ltd., priority 2005, dated 2009)
